Series [1] concerns SMA-497. The series can be described thus: In vivo inhibition of TIE-2 in VM/Dk mouse xenografted with mouse SMA-497 cells assessed as decrease in TIE-2 expression in brain blood vessels at 100 mg/kg,po daily with 12 Gy irradition after 2days of treatment initiation by immunohistochemistry analysis. The format is functional, organism-based.
The subject of series [2] is SMA-540. Description: Anti-clonogenicic activity in mouse SMA-540 cells assessed as reduction in colony formation at 0.001 to 10 uM and measured after 10 days by MTT based clonogenic survival assay. The format is functional, cell-based. The following applies: dose 0.001-10 µM, time 10.0 day.
The subject of series [3] is SMA-497. The series can be described thus: Cytotoxicity against mouse SMA-497 cells assessed as reduction in metabolic activity at 0.001 to 100 uM incubated for 72 hrs by MTT assay. The format is functional, cell-based. The settings on record: dose 0.001-100 µM.
Series [4] has as its system SMA-560. The series can be described thus: Induction of cell cycle arrest in mouse SMA-560 cells assessed as accumulation at G0/G1 phase at 0.1 uM incubated for 72 hrs by propidium iodide/RNase staining based flow cytomtery (Rvb= 71%). The series is classed as functional.
Series [5] relates to SMA-540. Description: Cytotoxicity against mouse SMA-540 cells assessed as reduction in metabolic activity at 0.001 to 100 uM incubated for 72 hrs by MTT assay. The format is functional, cell-based. The following applies: dose 0.001-100 µM.
Series [6] relates to SMA-497. Description: Antitumor activity against mouse SMA-497 cells xenografted in VM/Dk mouse assessed as decrease in tumor volume at 100 mg/kg,po daily with 12 Gy irradition after 2days of treatment initiation by H and E staining based microscopy. The format is functional, organism-based.
Series [7] concerns SMA-560. Description: Cytotoxicity against mouse SMA-560 cells assessed as reduction in metabolic activity at 0.001 to 100 uM incubated for 72 hrs by MTT assay. The series is classed as functional, cell-based. The settings on record: dose 0.001-100 µM.
The nature of series [8]: Toxicity in VM/Dk mouse xenografted with mouse SMA-560 cells assessed as survival rate at 100 mg/kg,po daily (Rvb=13 to 20%). The series is classed as organism-based. The settings on record: in vivo.
The subject of series [9] is SMA-497. The series can be described thus: Induction of apoptosis in mouse SMA-497 cells assessed as necrotic cells at 0.1 uM incubated for 72 hrs by Annexin V-FITC/PI staining based flow cytometric analysis (reference value: 14.7%). The series is classed as functional.
For series [10], the system named is SMA-540. Description: In vivo inhibition of TIE-2 in VM/Dk mouse xenografted with mouse SMA-540 cells assessed as decrease in TIE-2 expression in brain blood vessels at 100 mg/kg,po daily by immunohistochemistry analysis. The series is classed as functional, organism-based.
In series [11] the test system is SMA-497. The series can be described thus: Antitumor activity against mouse SMA-497 cells xenografted in VM/Dk mouse assessed as decrease in number of CD31-positive intra-tumoral vessels in tumor at 100 mg/kg,po daily with 12 Gy irradition after 2days of treatment initiation by immunohistochemistry analysis. The series is classed as functional, organism-based.
For series [12], the target named is Angiopoietin-1 receptor (Homo sapiens, UniProt Q02763). The series can be described thus: Binding affinity to TIE2 (unknown origin) assessed as dissociation constant by KINOME scan assay.
Series [13] relates to SMA-540. The series can be described thus: Antitumor activity against mouse SMA-540 cells xenografted in VM/Dk mouse assessed as decrease in tumor volume at 100 mg/kg,po daily by H and E staining based microscopy. The series is classed as functional, organism-based.
In series [14] the test system is SMA-497. The series can be described thus: Induction of cell cycle arrest in mouse SMA-497 cells assessed as accumulation at G2/M phase at 0.1 uM incubated for 72 hrs by propidium iodide/RNase staining based flow cytomtery (Rvb= 14%). The format is functional.
For series [15], the system named is SMA-497. Description: In vivo inhibition of TIE-2 in VM/Dk mouse xenografted with mouse SMA-497 cells assessed as decrease in TIE-2 expression in brain blood vessels at 100 mg/kg,po daily by immunohistochemistry analysis. The format is functional, organism-based.
Series [16] concerns SMA-497. Description: Induction of apoptosis in mouse SMA-497 cells assessed as early apoptotic cells at 0.1 uM incubated for 72 hrs by Annexin V-FITC/PI staining based flow cytometric analysis (reference value: 0.015%). The series is classed as functional.

SMILES strings stand for the structures. Activity calls are given as the source filed them. The calls are words filed in the database; no cut-off is given here.

Angiopoietin-1 receptor, sequence (Q02763 whole entry): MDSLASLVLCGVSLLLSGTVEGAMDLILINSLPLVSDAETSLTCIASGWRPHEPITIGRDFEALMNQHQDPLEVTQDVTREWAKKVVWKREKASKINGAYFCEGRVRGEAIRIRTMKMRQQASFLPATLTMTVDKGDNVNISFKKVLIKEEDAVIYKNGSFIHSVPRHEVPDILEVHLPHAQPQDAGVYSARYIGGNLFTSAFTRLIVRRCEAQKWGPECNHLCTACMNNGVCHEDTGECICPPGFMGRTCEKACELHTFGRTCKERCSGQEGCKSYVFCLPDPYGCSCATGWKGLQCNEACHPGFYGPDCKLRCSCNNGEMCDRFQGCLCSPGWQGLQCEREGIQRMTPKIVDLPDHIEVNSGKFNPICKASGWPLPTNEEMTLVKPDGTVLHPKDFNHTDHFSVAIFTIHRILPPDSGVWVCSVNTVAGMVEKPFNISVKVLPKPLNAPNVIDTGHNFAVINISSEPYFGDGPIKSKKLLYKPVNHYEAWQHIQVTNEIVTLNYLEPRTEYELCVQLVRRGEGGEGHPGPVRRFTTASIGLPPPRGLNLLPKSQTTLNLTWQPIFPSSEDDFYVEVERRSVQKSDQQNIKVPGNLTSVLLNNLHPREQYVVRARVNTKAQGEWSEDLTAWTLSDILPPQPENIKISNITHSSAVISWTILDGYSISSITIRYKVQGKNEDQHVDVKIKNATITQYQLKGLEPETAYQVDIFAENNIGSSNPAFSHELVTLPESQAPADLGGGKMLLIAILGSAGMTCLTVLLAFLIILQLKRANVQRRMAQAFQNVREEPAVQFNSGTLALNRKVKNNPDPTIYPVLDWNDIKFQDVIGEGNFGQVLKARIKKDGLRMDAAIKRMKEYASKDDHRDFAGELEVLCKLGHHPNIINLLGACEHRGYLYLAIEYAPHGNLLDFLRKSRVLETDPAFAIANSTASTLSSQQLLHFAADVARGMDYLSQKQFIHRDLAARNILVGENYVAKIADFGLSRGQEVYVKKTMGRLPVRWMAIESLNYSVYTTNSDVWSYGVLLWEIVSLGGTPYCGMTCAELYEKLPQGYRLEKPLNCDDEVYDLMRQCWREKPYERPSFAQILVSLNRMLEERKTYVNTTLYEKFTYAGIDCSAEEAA

Turning to `Cc1cc(C)c(-n2ccn3nc(-c4cccnc4)cc23)cc1NC(=O)c1cc(C#N)cc(S(F)(F)(F)(F)F)c1` [BAY-826], the inhibition result in [1], in [10] and in [15] was “Active” in each case. The result in series [2], in series [3], in [5], in [6], in series [7] and in series [13] was inactive. The Activity was found to be 67% in series [4], 18.3% in series [9], 10% in [14] and 0% in series [16]. The Survival in [8] worked out at 15%. Besides, the result in series [11] was Active. The Kd in series [12] was 1.6 nM.
